Earlier results, collected in US20210085696A1, “FORMULATIONS COMPRISING CHELATORS, PERMEATION ENHANCERS AND HYDROXYETHYL CELLULOSE FOR TREATING OPHTHALMIC DISORDERS” (LIVIONEX, Inc., priority 2018, published 2021).

Conditions: @ 79° F.

water solubility: 34 % w/v
Compound: CS(C)(=O)=O [MSM, methylsulfonylmethane]
